For this assay, the target named is T1, angiotensin-converting enzyme (ACE) (Ovis aries, UniProt A0ACI6QSL6).
T1 sequence (A0ACI6QSL6 34-1310): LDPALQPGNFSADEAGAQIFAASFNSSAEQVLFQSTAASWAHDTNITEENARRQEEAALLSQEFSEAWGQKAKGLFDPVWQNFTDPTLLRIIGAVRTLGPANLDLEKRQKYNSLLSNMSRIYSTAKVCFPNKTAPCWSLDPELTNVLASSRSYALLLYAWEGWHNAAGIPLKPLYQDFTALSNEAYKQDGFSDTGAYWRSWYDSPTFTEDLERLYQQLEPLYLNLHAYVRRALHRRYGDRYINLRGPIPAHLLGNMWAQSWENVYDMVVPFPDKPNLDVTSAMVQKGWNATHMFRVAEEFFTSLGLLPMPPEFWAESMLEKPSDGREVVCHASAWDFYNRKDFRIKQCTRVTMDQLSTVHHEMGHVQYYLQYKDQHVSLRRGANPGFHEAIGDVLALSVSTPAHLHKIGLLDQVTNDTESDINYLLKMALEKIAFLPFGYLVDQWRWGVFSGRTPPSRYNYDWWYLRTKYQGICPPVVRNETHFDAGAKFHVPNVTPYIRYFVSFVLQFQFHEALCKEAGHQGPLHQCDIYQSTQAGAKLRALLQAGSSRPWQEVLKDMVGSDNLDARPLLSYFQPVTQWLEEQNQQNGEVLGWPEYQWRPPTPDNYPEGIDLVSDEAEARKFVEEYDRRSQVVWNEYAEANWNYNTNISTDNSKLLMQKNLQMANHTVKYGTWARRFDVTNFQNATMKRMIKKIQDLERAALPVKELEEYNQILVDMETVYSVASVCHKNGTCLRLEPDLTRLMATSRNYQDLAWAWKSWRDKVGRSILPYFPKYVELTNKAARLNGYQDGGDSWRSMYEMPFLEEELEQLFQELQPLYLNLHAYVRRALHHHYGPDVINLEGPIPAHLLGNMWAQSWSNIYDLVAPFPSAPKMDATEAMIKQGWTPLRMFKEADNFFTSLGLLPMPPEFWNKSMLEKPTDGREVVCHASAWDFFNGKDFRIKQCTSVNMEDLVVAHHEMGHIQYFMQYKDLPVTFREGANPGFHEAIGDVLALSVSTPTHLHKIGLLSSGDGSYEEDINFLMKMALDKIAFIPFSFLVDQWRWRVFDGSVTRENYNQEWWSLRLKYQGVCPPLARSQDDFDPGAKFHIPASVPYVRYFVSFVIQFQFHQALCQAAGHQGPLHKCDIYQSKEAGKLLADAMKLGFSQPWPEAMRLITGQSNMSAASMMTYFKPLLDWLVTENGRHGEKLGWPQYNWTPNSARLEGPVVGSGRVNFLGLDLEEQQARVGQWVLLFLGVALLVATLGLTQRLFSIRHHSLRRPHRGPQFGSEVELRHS
In words: spectrophotometric FAPGG hydrolysis assay at […] nm. The assay is classed as biochemical.

For orientation: Ki means a measure of affinity in units of concentration, obtained from inhibition or displacement.

Take `C[C@H](CS)C(=O)N1CCC[C@H]1C(=O)O` [captopril]: the Ki came to 0.39 nM.

These data come from PMC8176444 (Molecular Biology Reports, 2021).
